From patent US9809578B2, “Pyrazolyl urea, thiourea, guanidine and cyanoguanidine compounds as trkA kinase inhibitors” (Array BioPharma Inc., priority 2012, dated 2017)

Columns and labels:
[1] = target: T1, His-tagged recombinant human TrkA (Homo sapiens, UniProt P04629); test: TrkA LanthaScreen Eu Kinase Binding Assay
T1 construct: 6HIS tagged cytoplasmic domain from Invitrogen, Cat. No. PV3144; purchased Invitrogen PV3144
Method: TrkA binding activity was determined in a TrkA LanthaScreen™ Eu Kinase Binding Assay. […] Three fold serial dilutions of compounds of the invention in DMSO were added to a final percentage of 2% DMSO. […] The percent of control was calculated using a ratiometric emission factor. The IC50 values were determined by fitting a four parameter model to the percent of control data.

AKT2 = target: T2, AKT2 (Homo sapiens, UniProt P31751); test: KinaseProfiler AKT2; format: biochemical; details: 10 μM, ATP near Km
T2 construct: purchased Millipore (KinaseProfiler service)
Text: (§1) The compound was run in duplicate at a concentration of ATP near the Km for each individual kinase according to Millipore's specifications.

ARK5 = target: T3, ARK5 (Homo sapiens, UniProt O60285); test: KinaseProfiler ARK5; format: biochemical; details: 10 μM, ATP near Km
T3 construct: purchased Millipore (KinaseProfiler service)
Text: as §1

CAMK2d = target: T4, CAMK2d (Homo sapiens, UniProt Q13557); test: KinaseProfiler CAMK2d; format: biochemical; details: 10 μM, ATP near Km
T4 construct: purchased Millipore (KinaseProfiler service)
Text: as §1

CDK6/cyclinD3 = target: T5, CDK6/cyclinD3 (Homo sapiens, UniProt Q00534); test: KinaseProfiler CDK6/cyclinD3; format: biochemical; details: 10 μM, ATP near Km
T5 construct: purchased Millipore, Inc. (KinaseProfiler service)
Text: as §1

CDK9/cyclinT1 = target: T6, CDK9/cyclinT1 (Homo sapiens, UniProt P50750); test: KinaseProfiler CDK9/cyclinT1; format: biochemical; details: 10 μM, ATP near Km
T6 construct: purchased Millipore, Inc. (KinaseProfiler service)
Text: as §1

CK1gamma1 = target: T7, CK1gamma1 (Homo sapiens, UniProt Q9HCP0); test: KinaseProfiler CK1gamma1; format: biochemical; details: 10 μM, ATP near Km
T7 construct: purchased Millipore, Inc. (KinaseProfiler service)
Text: as §1

CK2alpha2 = target: T8, CK2alpha2 (Homo sapiens, UniProt P19784); test: KinaseProfiler CK2alpha2; format: biochemical; details: 10 μM, ATP near Km
T8 construct: purchased Millipore, Inc. (KinaseProfiler service)
Text: as §1

CLK3 = target: T9, CLK3 (Homo sapiens, UniProt P49761); test: KinaseProfiler CLK3; format: biochemical; details: 10 μM, ATP near Km
T9 construct: purchased Millipore, Inc. (KinaseProfiler service)
Text: as §1

DDR2 = target: T10, DDR2 (Homo sapiens, UniProt Q16832); test: KinaseProfiler DDR2; format: biochemical; details: 10 μM, ATP near Km
T10 construct: purchased Millipore, Inc. (KinaseProfiler service)
Text: as §1

EGFR = target: T11, EGFR (Homo sapiens, UniProt P00533); test: KinaseProfiler EGFR; format: biochemical; details: 10 μM, ATP near Km
T11 construct: purchased Millipore, Inc. (KinaseProfiler service)
Text: as §1

EphA1 = target: T12, EphA1 (Homo sapiens, UniProt P21709); test: KinaseProfiler EphA1; format: biochemical; details: 10 μM, ATP near Km
T12 construct: purchased Millipore, Inc. (KinaseProfiler service)
Text: as §1

EphA3 = target: T13, EphA3 (Homo sapiens, UniProt P29320); test: KinaseProfiler EphA3; format: biochemical; details: 10 μM, ATP near Km
T13 construct: purchased Millipore, Inc. (KinaseProfiler service)
Text: as §1

FGFR4 = target: T14, FGFR4 (Homo sapiens, UniProt P22455); test: KinaseProfiler FGFR4; format: biochemical; details: 10 μM, ATP near Km
T14 construct: purchased Millipore, Inc. (KinaseProfiler service)
Text: as §1

GRK5 = target: T15, GRK5 (Homo sapiens, UniProt P34947); test: KinaseProfiler GRK5; format: biochemical; details: 10 μM, ATP near Km
T15 construct: purchased Millipore, Inc. (KinaseProfiler service)
Text: as §1

IKKbeta = target: T16, IKKbeta (Homo sapiens, UniProt O14920); test: KinaseProfiler IKKbeta; format: biochemical; details: 10 μM, ATP near Km
T16 construct: purchased Millipore, Inc. (KinaseProfiler service)
Text: as §1

IR = target: T17, IR (Homo sapiens, UniProt P06213); test: KinaseProfiler IR; format: biochemical; details: 10 μM, ATP near Km
T17 construct: purchased Millipore, Inc. (KinaseProfiler service)
Text: as §1

IRAK1 = target: T18, IRAK1 (Homo sapiens, UniProt P51617); test: KinaseProfiler IRAK1; format: biochemical; details: 10 μM, ATP near Km
T18 construct: purchased Millipore, Inc. (KinaseProfiler service)
Text: as §1

IRR = target: T19, IRR (Homo sapiens, UniProt P14616); test: KinaseProfiler IRR; format: biochemical; details: 10 μM, ATP near Km
T19 construct: purchased Millipore, Inc. (KinaseProfiler service)
Text: as §1

MARK2 = target: T20, MARK2 (Homo sapiens, UniProt Q7KZI7); test: KinaseProfiler MARK2; format: biochemical; details: 10 μM, ATP near Km
T20 construct: purchased Millipore, Inc. (KinaseProfiler service)
Text: as §1

MELK = target: T21, MELK (Homo sapiens, UniProt Q14680); test: KinaseProfiler MELK; format: biochemical; details: 10 μM, ATP near Km
T21 construct: purchased Millipore, Inc. (KinaseProfiler service)
Text: as §1

MKK4_m = target: T22, MKK4_m (Mus musculus, UniProt P47809); test: KinaseProfiler MKK4_m; format: biochemical; details: 10 μM, ATP near Km
T22 construct: purchased Millipore, Inc. (KinaseProfiler service)
Text: as §1

MKK6 = target: T23, MKK6 (Homo sapiens, UniProt P52564); test: KinaseProfiler MKK6; format: biochemical; details: 10 μM, ATP near Km
T23 construct: purchased Millipore, Inc. (KinaseProfiler service)
Text: as §1

MRCKbeta = target: T24, MRCKbeta (Homo sapiens, UniProt Q9Y5S2); test: KinaseProfiler MRCKbeta; format: biochemical; details: 10 μM, ATP near Km
T24 construct: purchased Millipore, Inc. (KinaseProfiler service)
Text: as §1

MST3 = target: T25, MST3 (Homo sapiens, UniProt Q9Y6E0); test: KinaseProfiler MST3; format: biochemical; details: 10 μM, ATP near Km
T25 construct: purchased Millipore, Inc. (KinaseProfiler service)
Text: as §1

NLK = target: T26, NLK (Homo sapiens, UniProt Q9UBE8); test: KinaseProfiler NLK; format: biochemical; details: 10 μM, ATP near Km
T26 construct: purchased Millipore, Inc. (KinaseProfiler service)
Text: as §1

PDGFRbeta = target: T27, PDGFRbeta (Homo sapiens, UniProt P09619); test: KinaseProfiler PDGFRbeta; format: biochemical; details: 10 μM, ATP near Km
T27 construct: purchased Millipore, Inc. (KinaseProfiler service)
Text: as §1

PDK1 = target: T28, PDK1 (Homo sapiens, UniProt O15530); test: KinaseProfiler PDK1; format: biochemical; details: 10 μM, ATP near Km
T28 construct: purchased Millipore, Inc. (KinaseProfiler service)
Text: as §1

PKCtheta = target: T29, PKCtheta (Homo sapiens, UniProt Q04759); test: KinaseProfiler PKCtheta; format: biochemical; details: 10 μM, ATP near Km
T29 construct: purchased Millipore, Inc. (KinaseProfiler service)
Text: as §1

PRKG1alpha = target: T30, PRKG1alpha (Homo sapiens, UniProt Q13976); test: KinaseProfiler PRKG1alpha; format: biochemical; details: 10 μM, ATP near Km
T30 construct: purchased Millipore, Inc. (KinaseProfiler service)
Text: as §1

Rsk1 = target: T31, Rsk1 (Homo sapiens, UniProt Q15418); test: KinaseProfiler Rsk1; format: biochemical; details: 10 μM, ATP near Km
T31 construct: purchased Millipore, Inc. (KinaseProfiler service)
Text: as §1

SGK1 = target: T32, SGK1 (Homo sapiens, UniProt O00141); test: KinaseProfiler SGK1; format: biochemical; details: 10 μM, ATP near Km
T32 construct: purchased Millipore, Inc. (KinaseProfiler service)
Text: as §1

Syk = target: T33, Syk (Homo sapiens, UniProt P43405); test: KinaseProfiler Syk; format: biochemical; details: 10 μM, ATP near Km
T33 construct: purchased Millipore, Inc. (KinaseProfiler service)
Text: as §1

TAK1 = target: T34, TAK1 (Homo sapiens, UniProt O43318); test: KinaseProfiler TAK1; format: biochemical; details: 10 μM, ATP near Km
T34 construct: purchased Millipore, Inc. (KinaseProfiler service)
Text: as §1

TAO2 = target: T35, TAO2 (Homo sapiens, UniProt Q9UL54); test: KinaseProfiler TAO2; format: biochemical; details: 10 μM, ATP near Km
T35 construct: purchased Millipore, Inc. (KinaseProfiler service)
Text: as §1

TEC Activated = target: T36, TEC Activated (Homo sapiens, UniProt P42680); test: KinaseProfiler TEC Activated; format: biochemical; details: 10 μM, ATP near Km
T36 construct: purchased Millipore, Inc. (KinaseProfiler service)
Text: as §1

Tie2 = target: T37, Tie2 (Homo sapiens, UniProt Q02763); test: KinaseProfiler Tie2; format: biochemical; details: 10 μM, ATP near Km
T37 construct: purchased Millipore, Inc. (KinaseProfiler service)
Text: as §1

TNK2 = target: T38, TNK2 (Homo sapiens, UniProt Q07912); test: KinaseProfiler TNK2; format: biochemical; details: 10 μM, ATP near Km
T38 construct: purchased Millipore, Inc. (KinaseProfiler service)
Text: as §1

TSSK2 = target: T39, TSSK2 (Homo sapiens, UniProt Q96PF2); test: KinaseProfiler TSSK2; format: biochemical; details: 10 μM, ATP near Km
T39 construct: purchased Millipore, Inc. (KinaseProfiler service)
Text: as §1

WNK3 = target: T40, WNK3 (Homo sapiens, UniProt Q9BYP7); test: KinaseProfiler WNK3; format: biochemical; details: 10 μM, ATP near Km
T40 construct: purchased Millipore, Inc. (KinaseProfiler service)
Text: as §1

T5 sequence (Q00534 whole entry): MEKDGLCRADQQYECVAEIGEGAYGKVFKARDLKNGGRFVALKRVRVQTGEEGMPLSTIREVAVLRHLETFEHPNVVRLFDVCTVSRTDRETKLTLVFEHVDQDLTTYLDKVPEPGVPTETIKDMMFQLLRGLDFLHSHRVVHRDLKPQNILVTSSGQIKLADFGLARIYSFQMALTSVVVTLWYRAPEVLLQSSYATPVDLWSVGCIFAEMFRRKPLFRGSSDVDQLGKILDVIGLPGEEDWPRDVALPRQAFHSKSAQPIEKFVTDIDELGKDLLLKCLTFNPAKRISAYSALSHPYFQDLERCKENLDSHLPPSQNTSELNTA
T5 sequence (P30281 whole entry partner): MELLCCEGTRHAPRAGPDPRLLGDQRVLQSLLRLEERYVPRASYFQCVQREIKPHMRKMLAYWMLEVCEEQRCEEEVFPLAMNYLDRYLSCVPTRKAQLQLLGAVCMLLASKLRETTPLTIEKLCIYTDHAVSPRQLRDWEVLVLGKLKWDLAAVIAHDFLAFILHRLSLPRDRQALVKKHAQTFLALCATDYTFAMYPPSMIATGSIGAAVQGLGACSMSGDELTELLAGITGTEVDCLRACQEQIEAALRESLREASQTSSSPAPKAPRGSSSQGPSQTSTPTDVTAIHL
T19 sequence (P14616 27-1297): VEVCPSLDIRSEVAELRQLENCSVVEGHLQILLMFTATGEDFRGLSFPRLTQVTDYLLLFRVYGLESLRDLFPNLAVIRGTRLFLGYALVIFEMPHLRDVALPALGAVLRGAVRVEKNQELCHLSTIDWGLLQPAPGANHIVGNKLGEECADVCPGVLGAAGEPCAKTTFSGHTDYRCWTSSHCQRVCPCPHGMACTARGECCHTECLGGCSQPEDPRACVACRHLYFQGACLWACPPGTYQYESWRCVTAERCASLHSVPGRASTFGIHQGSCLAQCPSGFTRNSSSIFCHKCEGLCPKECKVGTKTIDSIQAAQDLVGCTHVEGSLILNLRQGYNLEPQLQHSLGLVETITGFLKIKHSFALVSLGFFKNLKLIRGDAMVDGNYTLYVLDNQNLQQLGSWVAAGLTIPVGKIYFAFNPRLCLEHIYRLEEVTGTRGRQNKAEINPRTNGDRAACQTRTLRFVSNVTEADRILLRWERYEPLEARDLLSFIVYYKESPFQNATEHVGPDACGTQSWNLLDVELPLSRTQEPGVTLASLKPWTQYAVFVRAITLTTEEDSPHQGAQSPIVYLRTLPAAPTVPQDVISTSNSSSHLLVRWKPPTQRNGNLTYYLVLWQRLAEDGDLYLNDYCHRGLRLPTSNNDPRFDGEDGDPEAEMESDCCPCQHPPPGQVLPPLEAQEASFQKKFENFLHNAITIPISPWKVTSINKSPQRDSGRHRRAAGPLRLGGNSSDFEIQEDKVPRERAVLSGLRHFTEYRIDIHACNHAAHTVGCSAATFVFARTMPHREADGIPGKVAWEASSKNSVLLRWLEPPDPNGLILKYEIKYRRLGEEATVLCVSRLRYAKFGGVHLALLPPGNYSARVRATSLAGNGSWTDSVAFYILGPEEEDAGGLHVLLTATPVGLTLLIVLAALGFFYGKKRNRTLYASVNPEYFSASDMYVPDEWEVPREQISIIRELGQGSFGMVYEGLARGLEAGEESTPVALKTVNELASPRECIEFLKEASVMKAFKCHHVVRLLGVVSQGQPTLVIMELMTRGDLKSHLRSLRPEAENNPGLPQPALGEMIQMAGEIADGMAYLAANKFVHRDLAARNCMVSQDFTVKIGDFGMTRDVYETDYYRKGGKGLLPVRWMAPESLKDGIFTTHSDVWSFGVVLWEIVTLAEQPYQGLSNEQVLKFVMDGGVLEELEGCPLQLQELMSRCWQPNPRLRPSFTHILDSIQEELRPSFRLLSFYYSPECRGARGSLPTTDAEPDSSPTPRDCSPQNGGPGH
T35 sequence (Q9UL54 whole entry): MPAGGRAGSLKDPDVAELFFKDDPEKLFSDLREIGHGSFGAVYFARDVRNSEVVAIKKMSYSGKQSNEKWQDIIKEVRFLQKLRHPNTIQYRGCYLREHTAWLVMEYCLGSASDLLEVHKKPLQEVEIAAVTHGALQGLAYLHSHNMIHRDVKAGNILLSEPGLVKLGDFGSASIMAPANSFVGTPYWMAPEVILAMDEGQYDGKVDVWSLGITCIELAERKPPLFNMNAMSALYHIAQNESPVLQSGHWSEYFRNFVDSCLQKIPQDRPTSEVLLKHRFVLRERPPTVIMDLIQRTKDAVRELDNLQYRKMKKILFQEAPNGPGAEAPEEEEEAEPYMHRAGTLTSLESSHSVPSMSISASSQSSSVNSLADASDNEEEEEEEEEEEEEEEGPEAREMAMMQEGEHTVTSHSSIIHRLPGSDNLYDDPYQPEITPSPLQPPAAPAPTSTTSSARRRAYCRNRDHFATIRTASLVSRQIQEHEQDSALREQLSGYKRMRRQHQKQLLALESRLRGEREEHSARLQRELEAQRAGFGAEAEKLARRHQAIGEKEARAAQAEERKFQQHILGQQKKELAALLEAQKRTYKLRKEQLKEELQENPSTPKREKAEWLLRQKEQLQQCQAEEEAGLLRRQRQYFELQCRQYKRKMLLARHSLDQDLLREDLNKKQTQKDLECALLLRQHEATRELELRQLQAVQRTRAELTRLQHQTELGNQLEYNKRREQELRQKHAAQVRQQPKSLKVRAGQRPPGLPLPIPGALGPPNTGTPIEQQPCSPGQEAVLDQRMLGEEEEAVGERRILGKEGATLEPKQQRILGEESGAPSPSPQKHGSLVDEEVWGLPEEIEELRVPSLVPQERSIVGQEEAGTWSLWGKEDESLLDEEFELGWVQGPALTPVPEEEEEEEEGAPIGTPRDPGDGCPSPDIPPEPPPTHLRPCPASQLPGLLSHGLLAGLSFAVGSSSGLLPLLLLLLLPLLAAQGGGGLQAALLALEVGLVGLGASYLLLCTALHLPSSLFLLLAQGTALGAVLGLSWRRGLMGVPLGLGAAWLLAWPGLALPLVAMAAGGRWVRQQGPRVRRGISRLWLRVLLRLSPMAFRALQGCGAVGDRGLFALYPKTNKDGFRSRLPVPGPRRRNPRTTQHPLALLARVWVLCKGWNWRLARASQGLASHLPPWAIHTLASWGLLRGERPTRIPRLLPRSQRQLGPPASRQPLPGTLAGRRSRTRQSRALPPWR
T6 sequence (P50750 whole entry): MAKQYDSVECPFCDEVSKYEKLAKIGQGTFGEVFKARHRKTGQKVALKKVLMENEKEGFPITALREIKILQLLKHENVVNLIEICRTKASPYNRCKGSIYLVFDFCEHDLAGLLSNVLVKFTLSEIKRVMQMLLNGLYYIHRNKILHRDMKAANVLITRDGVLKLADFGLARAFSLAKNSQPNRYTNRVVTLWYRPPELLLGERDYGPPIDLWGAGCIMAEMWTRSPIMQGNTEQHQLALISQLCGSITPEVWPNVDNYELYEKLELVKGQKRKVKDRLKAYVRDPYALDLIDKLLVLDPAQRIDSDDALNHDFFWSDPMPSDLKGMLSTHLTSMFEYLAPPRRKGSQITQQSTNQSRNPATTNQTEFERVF
T6 sequence (O60563 whole entry partner): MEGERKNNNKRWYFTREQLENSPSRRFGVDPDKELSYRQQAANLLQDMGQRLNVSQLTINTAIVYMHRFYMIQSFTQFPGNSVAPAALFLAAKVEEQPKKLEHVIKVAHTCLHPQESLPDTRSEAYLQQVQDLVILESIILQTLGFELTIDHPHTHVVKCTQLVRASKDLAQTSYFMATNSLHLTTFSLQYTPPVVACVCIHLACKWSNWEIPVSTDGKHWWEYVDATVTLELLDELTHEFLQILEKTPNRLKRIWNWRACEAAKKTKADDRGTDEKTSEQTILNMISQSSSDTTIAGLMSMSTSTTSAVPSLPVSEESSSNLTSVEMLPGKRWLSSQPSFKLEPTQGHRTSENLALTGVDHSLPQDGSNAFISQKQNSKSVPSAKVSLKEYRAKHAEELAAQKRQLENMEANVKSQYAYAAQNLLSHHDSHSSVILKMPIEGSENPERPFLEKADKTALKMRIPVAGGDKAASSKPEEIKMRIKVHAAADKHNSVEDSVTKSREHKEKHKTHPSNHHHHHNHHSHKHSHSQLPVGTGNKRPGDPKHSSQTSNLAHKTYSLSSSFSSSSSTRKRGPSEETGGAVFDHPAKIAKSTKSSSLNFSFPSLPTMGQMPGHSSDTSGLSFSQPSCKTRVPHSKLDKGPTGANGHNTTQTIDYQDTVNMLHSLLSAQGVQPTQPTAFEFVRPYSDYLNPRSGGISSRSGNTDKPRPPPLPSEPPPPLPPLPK
T36 sequence (P42680 whole entry): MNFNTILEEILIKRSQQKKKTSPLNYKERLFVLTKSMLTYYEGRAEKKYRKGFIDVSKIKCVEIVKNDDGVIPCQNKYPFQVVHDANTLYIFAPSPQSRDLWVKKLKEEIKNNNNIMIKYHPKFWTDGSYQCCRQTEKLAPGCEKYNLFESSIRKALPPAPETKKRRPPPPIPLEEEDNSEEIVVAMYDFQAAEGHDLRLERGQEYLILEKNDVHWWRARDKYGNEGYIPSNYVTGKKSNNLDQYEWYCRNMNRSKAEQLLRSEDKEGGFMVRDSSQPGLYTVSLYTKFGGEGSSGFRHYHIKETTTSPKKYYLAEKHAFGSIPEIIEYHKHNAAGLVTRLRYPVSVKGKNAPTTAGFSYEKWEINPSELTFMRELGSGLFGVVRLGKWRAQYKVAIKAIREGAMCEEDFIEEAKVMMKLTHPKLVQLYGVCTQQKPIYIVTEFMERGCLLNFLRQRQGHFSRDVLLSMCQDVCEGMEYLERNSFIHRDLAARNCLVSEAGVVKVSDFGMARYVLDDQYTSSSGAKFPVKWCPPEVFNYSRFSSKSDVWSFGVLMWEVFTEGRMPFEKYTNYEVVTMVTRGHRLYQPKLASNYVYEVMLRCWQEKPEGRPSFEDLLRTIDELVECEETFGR

For `Cc1c(-c2cnn(C)c2)nn(-c2ccccc2)c1NC(=O)Nc1cc(C(F)(F)F)nn1-c1ccccc1` [Example 3, 1-(1′,4-dimethyl-1-phenyl-1H,1′H-[3,4′-bipyrazol]-5-yl)-3-(1-phenyl-3-(trifluoromethyl)-1H-pyrazol-5-yl)urea], the IC50 [1] was under 100 nM, the “Avg POC” value (AKT2) was 219.5 POC and the “Avg POC” value (ARK5) was 92.5 POC. For the same compound, the “Avg POC” value (CAMK2d) was 131 POC, the “Avg POC” value (CDK6/cyclinD3) was 107.5 POC and the “Avg POC” value (CDK9/cyclinT1) was 107.5 POC. The “Avg POC” value (CK1gamma1) was 112 POC, the “Avg POC” value (CK2alpha2) was 102.5 POC and the “Avg POC” value (CLK3) was 104 POC. For the same compound, the “Avg POC” value (DDR2) was 98 POC, the “Avg POC” value (EGFR) was 97.5 POC and the “Avg POC” value (EphA1) was 93.5 POC. For the same compound, the “Avg POC” value (EphA3) was 128.5 POC, the “Avg POC” value (FGFR4) was 174.5 POC and the “Avg POC” value (GRK5) was 84 POC. For the same compound, the “Avg POC” value (IKKbeta) was 123 POC, the “Avg POC” value (IR) was 90 POC and the “Avg POC” value (IRAK1) was 102.5 POC. The “Avg POC” value (IRR) was 99.5 POC, the “Avg POC” value (MARK2) was 106.5 POC and the “Avg POC” value (MELK) was 115 POC. The “Avg POC” value (MKK4_m) was 132.5 POC, the “Avg POC” value (MKK6) was 132.5 POC and the “Avg POC” value (MRCKbeta) was 121.5 POC. For the same compound, the “Avg POC” value (MST3) was 146.5 POC, the “Avg POC” value (NLK) was 116.5 POC and the “Avg POC” value (PDGFRbeta) was 175 POC. For the same compound, the “Avg POC” value (PDK1) was 123 POC, the “Avg POC” value (PKCtheta) was 113.5 POC and the “Avg POC” value (PRKG1alpha) was 108 POC. For the same compound, the “Avg POC” value (Rsk1) was 123 POC, the “Avg POC” value (SGK1) was 276.5 POC and the “Avg POC” value (Syk) was 101 POC. For the same compound, the “Avg POC” value (TAK1) was 94 POC, the “Avg POC” value (TAO2) was 108 POC and the “Avg POC” value (TEC Activated) was 144.5 POC. For the same compound, the “Avg POC” value (Tie2) was 121.5 POC, the “Avg POC” value (TNK2) was 118.5 POC and the “Avg POC” value (TSSK2) was 132.5 POC. The “Avg POC” value (WNK3) was 108 POC.
